Consider 30 compounds from patent US5972953A, “Brain cell protective agent” (priority 1993, dated 1999).

pEC50: −log10 of the molar value. Like-named read-outs stand apart in the source and are kept apart here.

The subject of this experiment is cultured nerve cells (cerebral cortex). Description: cells. The conditions noted are these: Rattus norvegicus, Cerebral cortex neuron. It is filed as cell-based, Wistar rat.
The mark [1] stands for this setting: 10 mM glutamate, 24 hours at 37° C., LDH leakage, read-out: ED50 (the source's name).

Turning to `CC(C)CN(C(=O)Cc1ccc(Cl)c(Cl)c1)[C@@H]1CC[C@@]2(O)[C@H]3Cc4ccc(O)c5c4[C@@]2(CCN3CC2CC2)[C@H]1O5` [Compound 39, 17-cyclopropylmethyl-3,14β-dihydroxy-4,5α-epoxy-6β-(N-isobutyl-3,4-dichlorophenylacetoamido)morphinan], the pEC50 under setting [1] was 6.41.

Consider `CCCCCN(C(=O)CCCCCc1ccccc1)[C@@H]1CC[C@@]2(O)[C@H]3Cc4ccc(O)c5c4[C@@]2(CCN3CC2CC2)[C@H]1O5` [Compound 70, 17-cyclopropylmethyl-3,14β-dihydroxy-4,5α-epoxy-6β-(N-pentyl-6-phenylhexanoamido)morphinan], for which the pEC50 under setting [1] was 6.72.

Consider `CCCCOC(=O)N(C)[C@@H]1CC[C@@]2(O)[C@H]3Cc4ccc(O)c5c4[C@@]2(CCN3CC2CC2)[C@H]1O5` [Compound 48, 17-cyclopropylmethyl-3,14β-dihydroxy-4,5α-epoxy-6β-(N-methylbutyroxycarbamido)morphinan], for which, under setting [1], the pEC50 was 5.15.

As to `CC(C)CN(C(=O)CCCCCc1ccccc1)[C@H]1CC[C@@]2(O)[C@H]3Cc4ccc(O)c5c4[C@@]2(CCN3CC2CC2)[C@H]1O5` [Compound 37, 17-cyclopropylmethyl-3,14β-dihydroxy-4,5α-epoxy-6α-(N-isobutyl-6-phenylhexanoamido)morphinan], the pEC50 under setting [1] is 7.22.

Consider `CN(C(=O)/C=C/c1cccc(F)c1)[C@@H]1CC[C@@]2(O)[C@H]3Cc4ccc(O)c5c4[C@@]2(CCN3CC2CC2)[C@H]1O5` [Compound 79, 17-cyclopropylmethyl-3,14β-dihydroxy-4,5α-epoxy-6β-(N-methyl-3-fluorocinnamamido)morphinan], for which the pEC50 (24 h, read-out: ED50) is 4.91.

As for `Oc1ccc2c3c1O[C@H]1[C@H](N(Cc4ccccc4)CC4CCCCC4)CC[C@@]4(O)[C@@H](C2)N(CC2CC2)CC[C@]314` [Compound 11, 17-cyclopropylmethyl-3,14β-dihydroxy-4,5α-epoxy-6β-[N-(cyclohexylmethyl)benzylamino]morphinan], the pEC50 under setting [1] was 6.77.

With `CN(C(=O)c1ccc2ccccc2c1)[C@@H]1CC[C@@]2(O)[C@H]3Cc4ccc(O)c5c4[C@@]2(CCN3CC2CC2)[C@H]1O5` [Compound 52, 17-cyclopropylmethyl-3,14β-dihydroxy-4,5α-epoxy-6β-(N-methyl-2-naphthamido)morphinan], under setting [1], the pEC50 is 5.83.

For the compound `CN(C(=O)/C=C/c1cccc(OC(F)(F)F)c1)[C@@H]1CC[C@@]2(O)[C@H]3Cc4ccc(O)c5c4[C@@]2(CCN3CC2CC2)[C@H]1O5` [Compound 120, 17-cyclopropylmethyl-3,14β-dihydroxy-4,5α-epoxy-6β-(N-methyl-3-trifluoromethoxycinnamamido)morphinan], under “24 h, read-out: ED50”, the pEC50 is 5.97.

In the case of `CN(C(=O)CCC1CCCC1)[C@@H]1CC[C@@]2(O)[C@H]3Cc4ccc(O)c5c4[C@@]2(CCN3CC2CC2)[C@H]1O5` [Compound 51, 17-cyclopropylmethyl-3,14β-dihydroxy-4,5α-epoxy-6β-(N-methyl-3-cyclopentylpropioamido)morphinan], the pEC50 under setting [1] is 4.87.

On to `CN([C@H]1CC[C@@]2(O)[C@H]3Cc4ccc(O)c5c4[C@@]2(CCN3CC2CC2)[C@H]1O5)S(=O)(=O)Cc1ccccc1` [Compound 112, 17-cyclopropylmethyl-3,14β-dihydroxy-4,5α-epoxy-6α-(N-methyl-phenylmethanesulfonamido)morphinan], for which the pEC50 under setting [1] was 5.84.

Turning to `Oc1ccc2c3c1O[C@H]1[C@H](N(CCc4ccccc4)Cc4ccccc4)CC[C@@]4(O)[C@@H](C2)N(CC2CC2)CC[C@]314` [Compound 10, 17-cyclopropylmethyl-3,14β-dihydroxy-4,5α-epoxy-6β-(N-2-phenethylbenzylamino)morphinan], under setting [1], the pEC50 is 6.55.

As to `CCCCCN(Cc1ccccc1)[C@@H]1CC[C@@]2(O)[C@H]3Cc4ccc(O)c5c4[C@@]2(CCN3CC2CC2)[C@H]1O5` [Compound 9, 17-cyclopropylmethyl-3,14β-dihydroxy-4,5α-epoxy-6β-(N-pentylbenzylamino)morphinan], the pEC50 under setting [1] was 6.54.

Regarding `CN(C(=O)/C=C/c1ccc(C(F)(F)F)cc1)[C@@H]1CC[C@@]2(O)[C@H]3Cc4ccc(O)c5c4[C@@]2(CCN3CC2CC2)[C@H]1O5` [Compound 56, 17-cyclopropylmethyl-3,14β-dihydroxy-4,5α-epoxy-6β-(N-methyl-4-trifluoromethylcinnamamido)morphinan], under setting [1], the pEC50 was 5.97.

On to `Oc1ccc2c3c1O[C@H]1[C@H](N(CCCCc4ccccc4)Cc4ccccc4)CC[C@@]4(O)[C@@H](C2)N(CC2CC2)CC[C@]314` [Compound 13, 17-cyclopropylmethyl-3,14β-dihydroxy-4,5α-epoxy-6β-(N-4-phenylbutylbenzylamino) morphinan], for which, under setting [1], the pEC50 was 6.68.

For the compound `CC(C)CN(C(=O)CCCCC(=O)c1ccccc1)[C@@H]1CC[C@@]2(O)[C@H]3Cc4ccc(O)c5c4[C@@]2(CCN3CC2CC2)[C@H]1O5` [Compound 61, 17-cyclopropylmethyl-3,14β-dihydroxy-4,5α-epoxy-6β-(N-isobutyl-5-benzoylpentanoamido)morphinan], the pEC50 under setting [1] is 5.65.

Regarding `CN(C(=S)NCc1ccccc1)[C@H]1CC[C@@]2(O)[C@H]3Cc4ccc(O)c5c4[C@@]2(CCN3CC2CC2)[C@H]1O5` [Compound 105, 17-cyclopropylmethyl-3,14β-dihydroxy-4,5α-epoxy-6α-(N-methyl-N'-benzylthioureido)morphinan], under setting [1], the pEC50 is 4.69.

With `CN(C(=O)/C=C/c1ccccc1)[C@@H]1CC[C@@]2(O)[C@H]3Cc4ccc(O)c5c4[C@@]2(CCN3CC2CC2)[C@H]1O5` [Compound 76, 17-cyclopropylmethyl-3,14β-dihydroxy-4,5α-epoxy-6β-(N-methylcinnamamido)morphinan], the pEC50 under setting [1] was 5.17.

With `CCCCN(C(=O)/C=C/c1cccc(C(F)(F)F)c1)[C@@H]1CC[C@@]2(O)[C@H]3Cc4ccc(O)c5c4[C@@]2(CCN3CC2CC2)[C@H]1O5` [Compound 66, 17-cyclopropylmethyl-3,14β-dihydroxy-4,5α-epoxy-6β-(N-butyl-3-trifluoromethylcinnamamido)morphinan], the pEC50 under setting [1] was 6.48.

Turning to `O=C(/C=C/c1cccc(C(F)(F)F)c1)N(CCCc1ccccc1)[C@@H]1CC[C@@]2(O)[C@H]3Cc4ccc(O)c5c4[C@@]2(CCN3CC2CC2)[C@H]1O5` [Compound 69, 17-cyclopropylmethyl-3,14β-dihydroxy-4,5α-epoxy-6β-[N-(3-phenylpropyl)-3-trifluoromethylcinnamamido]-morphinan], under setting [1], the pEC50 is 6.80.

With `CN(C(=O)Cc1cccc(Cl)c1)[C@@H]1CC[C@@]2(O)[C@H]3Cc4ccc(O)c5c4[C@@]2(CCN3CC2CC2)[C@H]1O5` [Compound 85, 17-cyclopropylmethyl-3,14β-dihydroxy-4,5α-epoxy-6β-(N-methyl-3-chlorophenylacetoamido) morphinan], under setting [1], the pEC50 was 5.37.

With `CN(C(=O)C#Cc1cccc(C(F)(F)F)c1)[C@@H]1CC[C@@]2(O)[C@H]3Cc4ccc(O)c5c4[C@@]2(CCN3CC2CC2)[C@H]1O5` [Compound 90, 17-Cyclopropylmethyl-3,14β-dihydroxy-4,5α-epoxy-6β-[N-methyl-3-(3-trifluoromethylphenyl)propiolamido]morphinan], the pEC50 under setting [1] was 5.36.

In the case of `CN(C(=O)C1CCCCC1)[C@H]1CC[C@@]2(O)[C@H]3Cc4ccc(O)c5c4[C@@]2(CCN3CC2CC2)[C@H]1O5` [Compound 31, 17-cyclopropylmethyl-3,14β-dihydroxy-4,5α-epoxy-6α-(N-methylcyclohexylcarboxamido)morphinan], under setting [1], the pEC50 is 5.60.

Turning to `CN(C(=S)NCc1ccccc1)[C@@H]1CC[C@@]2(O)[C@H]3Cc4ccc(O)c5c4[C@@]2(CCN3CC2CC2)[C@H]1O5` [Compound 106, 17-cyclopropylmethyl-3,14β-dihydroxy-4,5α-epoxy-6β-(N-methyl-N'-benzylthioureido)morphinan], under setting [1], the pEC50 was 4.96.

On to `CC(C)CN(C(=O)CCCCCc1ccccc1)[C@@H]1CC[C@@]2(O)[C@H]3Cc4ccc(O)c5c4[C@@]2(CCN3CC2CC2)[C@H]1O5` [Compound 58, 17-cyclopropylmethyl-3,14β-dihydroxy-4,5α-epoxy-6β-(N-isobutyl-6-phenylhexanoamido)morphinan], for which the pEC50 under setting [1] is 7.00.

Consider `COCCOC(=O)N(C)[C@H]1CC[C@@]2(O)[C@H]3Cc4ccc(O)c5c4[C@@]2(CCN3CC2CC2)[C@H]1O5` [Compound 100, 17-cyclopropylmethyl-3,14β-dihydroxy-4,5α-epoxy-6α-(N-methyl-2-methoxyethoxycarbamido)morphinan], for which, under setting [1], the pEC50 is 4.41.

Turning to `CN(Cc1ccccc1)[C@H]1CC[C@@]2(O)[C@H]3Cc4ccc(O)c5c4[C@@]2(CCN3CC2CC2)[C@H]1O5` [Compound 95, 17-cyclopropylmethyl-3,14β-dihydroxy-4,5α-epoxy-6α-(N-methylbenzylamino)morphinan], under setting [1], the pEC50 is 6.25.

For the compound `CN([C@H]1CC[C@@]2(O)[C@H]3Cc4ccc(O)c5c4[C@@]2(CCN3CC2CC2)[C@H]1O5)S(=O)(=O)Cc1ccc(Cl)c(Cl)c1` [Compound 111, 17-cyclopropylmethyl-3,14β-dihydroxy-4,5α-epoxy-6α-(N-methyl-3,4-dichlorophenylmethanesulfonamido) morphinan], the pEC50 under setting [1] was 6.27.

For the compound `Oc1ccc2c3c1O[C@H]1[C@H](N(CCCc4ccccc4)Cc4ccccc4)CC[C@@]4(O)[C@@H](C2)N(CC2CC2)CC[C@]314` [Compound 12, 17-cyclopropylmethyl-3,14β-dihydroxy-4,5α-epoxy-6β-(N-3-phenylpropylbenzylamino) morphinan], the pEC50 under setting [1] was 6.89.

For the compound `CC(C)N(Cc1ccccc1)[C@@H]1CC[C@@]2(O)[C@H]3Cc4ccc(O)c5c4[C@@]2(CCN3CC2CC2)[C@H]1O5` [Compound 6, 17-cyclopropylmethyl-3,14β-dihydroxy-4,5α-epoxy-6β-(N-isopropylbenzylamino)morphinan], the pEC50 under setting [1] is 5.71.

Take `CN(C(=O)C1c2ccccc2-c2ccccc21)[C@@H]1CC[C@@]2(O)[C@H]3Cc4ccc(O)c5c4[C@@]2(CCN3CC2CC2)[C@H]1O5` [Compound 88, 17-cyclopropylmethyl-3,14β-dihydroxy-4,5α-epoxy-6β-(N-methyl-9-fluorenylamido) morphinan]: the pEC50 under setting [1] was 5.33.
